# In patent publication US9943537B2, “Antitumor agent and antitumor effect enhancer” (TAIHO PHARMACEUTICAL CO., LTD., priority 2013, dated 2018):
# Assays:
# [1] = tested on: human colon cancer cell line (Co-3); experiment: Co-3 xenograft in nude mice, relative tumor volume; FTD/TPI oral Days 1 to 14, panitumumab into abdominal cavity twice a week for two weeks; assay type: in vivo
# Method: (§1) A human colon cancer cell line (Co-3) was transplanted onto the right chest of a five to six week-old BALB/cA Jcl-nu mouse. The length (mm) and the breadth (mm) of the tumor after the tumor transplantation were measured, and the tumor volume (TV) was calculated. Then, the mouse was allocated into each group such that the average TV in each group was equal, and the day when the grouping (n=6) was implemented was assumed to be Day 0.
# (§2) The administration dose of the drug was 10 mL/kg, and the FTD/TPI combination drug (a mixture of FTD and TPI at the molar ratio of 1:0.5) was prepared to be 150 mg/kg/day as the dose of FTD. Panitumumab (Vectibix (registered trademark) injection, Amgen Inc.) was prepared to be 0.30, 0.89, 2.7 and 8 mg/kg/day. The FTD/TPI combination drug was orally administered on Days 1 to 14 every day, and panitumumab was administered into the abdominal cavity for two weeks at a frequency of twice a week from Day 1. To the combination-treated group, the FTD/TPI combination drug and panitumumab were administered in the same doses and the same administration schedules as those of the single agent-treated group.
# […] The chronological changes of RTV were compared of no treatment group (control), the FTD/TPI combination drug-treated group, the panitumumab-treated group and the combination FTD/TPI combination drug and panitumumab treated group. In addition, the weight loss as the toxicity was evaluated.
# [2] = Body weight change of Co-3-bearing nude mice, panitumumab study (toxicity); assay type: in vivo, mouse
# Method: as §1, §2
# As an index of the antitumor effect, TV on Days 5, 8, 12 and 15 was calculated in each group, and the relative tumor volume (RTV) for Day 0 was obtained according to the formula of Example 1 and plotted. The chronological changes of RTV were compared of no treatment group (control), the FTD/TPI combination drug-treated group, the panitumumab-treated group and the combination FTD/TPI combination drug and panitumumab treated group. In addition, the weight loss as the toxicity was evaluated.
# [3] = Body weight change of KM20C-bearing nude mice (toxicity); assay type: in vivo, mouse
# Method: as §1, with “(KM20C)” for “(Co-3)”, “(n=6 to 7)” for “(n=6)”
# (§3) The administration dose of the drug was 10 mL/kg, and the FTD/TPI combination drug (a mixture of FTD and TPI at a molar ratio of 1:0.5) was prepared to be 150 mg/kg/day as the dose of FTD.
# As an index of the antitumor effect, the TV in each group was calculated, and the relative tumor volume (RTV) for Day 0 was obtained from the equation below and plotted. […] In addition, the weight loss as the toxicity was evaluated. TV(mm^3)=(length×breadth^2)/2 RTV=(TV on evaluation day)/(TV on Day 0)
# [4] = tested on: human breast cancer cell line (MC-2); experiment: MC-2 xenograft in nude mice, relative tumor volume and days till RTV reached 2; FTD/TPI and bevacizumab; assay type: in vivo
# Method: as §1, with “(KM20C)” for “(Co-3)”, “(n=6 to 7)” for “(n=6)”
# (§4) As an index of the antitumor effect, the TV in each group was calculated, and the relative tumor volume (RTV) for Day 0 was obtained from the equation below and plotted. The chronological changes of RTV were compared among no treatment group (control), an FTD/TPI combination drug-treated group, a bevacizumab-treated group, and a FTD/TPI combination drug and bevacizumab combination-treated group. In addition, the weight loss as the toxicity was evaluated. TV(mm^3)=(length×breadth^2)/2 RTV=(TV on evaluation day)/(TV on Day 0)
# (§5) Next, a test was performed in the same manner using a human breast cancer cell line (MC-2).
# With respect to the time period during which the tumor volume doubled from Day 0 (namely, RTV becomes 2), the results of the combination-treated group were predicted from the single agent-treated group of FIGS. 5 and 6. The “length of days till RTV actually reached 2” was calculated under the assumption that RTV on the measurement day when RTV firstly exceeded 2 changes according to a linear function from RTV on the measurement day immediately before the day.
# [5] = Body weight change of MC-2-bearing nude mice (toxicity); assay type: in vivo, mouse; conditions: MC-2, Day 15, dose 1.5 mg/kg/day
# Method: as §1, with “(KM20C)” for “(Co-3)”, “(n=6 to 7)” for “(n=6)”
# as §4, §5
# [6] = tested on: human colon cancer cell line (KM20C); experiment: KM20C xenograft in nude mice, relative tumor volume; FTD/TPI oral Days 1 to 14, bevacizumab into abdominal cavity twice a week for two weeks; assay type: in vivo
# Method: as §1, with “(KM20C)” for “(Co-3)”, “(n=6 to 7)” for “(n=6)”
# as §3, §4
# [7] = Co-3, Day 29, dose 0.30 mg/kg/day
# [8] = Co-3, Day 29, dose 0.89 mg/kg/day
# [9] = Co-3, Day 29, dose 2.7 mg/kg/day
# [10] = MC-2, Day 15, dose 1.5 mg/kg/day
substance,measurement,setting,value
"Panitumumab: anti-EGFR human-type fully monoclonal antibody (Vectibix injection, Amgen Inc.)",IR (%) tumor growth inhibition rate,[1]; [7],23.0%
same,RTV (mean ± SD),[1]; [7],18.15 ± 6.79
same,IR (%) tumor growth inhibition rate,[1]; [8],35.9%
same,RTV (mean ± SD),[1]; [8],15.10 ± 7.51
same,IR (%) tumor growth inhibition rate,[1]; [9],46.1%
same,RTV (mean ± SD),[1]; [9],12.71 ± 4.37
same,IR (%) tumor growth inhibition rate,"[1]; Co-3, Day 29, dose 8 mg/kg/day",45.0%
same,RTV (mean ± SD),"[1]; Co-3, Day 29, dose 8 mg/kg/day",12.97 ± 2.33
same,"Body weight change (%, mean ± SD)",[2]; [7],−11.3 ± 5.3%
same,"Body weight change (%, mean ± SD)",[2]; [8],−6.7 ± 4.3%
same,"Body weight change (%, mean ± SD)",[2]; [9],−1.2 ± 3.1%
same,"Body weight change (%, mean ± SD)","[2]; Co-3, Day 29, dose 8 mg/kg/day",−4.5 ± 4.5%
"Bevacizumab: anti-VEGF humanized monoclonal antibody (Avastin injection, Chugai Pharmaceutical Co., Ltd.)","Body weight change (%, mean ± SD)","[3]; Day 29, dose 0.20 mg/kg/day",9.7 ± 5.1%
same,"Body weight change (%, mean ± SD)","[3]; Day 29, dose 0.55 mg/kg/day",3.2 ± 6.0%
same,"Body weight change (%, mean ± SD)","[3]; Day 29, dose 1.7 mg/kg/day",5.2 ± 6.7%
same,IR (%) tumor growth inhibition rate,[4]; [10],41.1%
same,RTV (mean ± SD),[4]; [10],3.06 ± 0.88
same,Length of Days (day) till RTV actually reached 2,"[4]; MC-2, single agent, bevacizumab 1.5 mg/kg/day",7.71 days
same,"Body weight change (%, mean ± SD)",[5],7.7 ± 3.7%
same,IR (%) tumor growth inhibition rate,"[6]; Day 29, dose 0.20 mg/kg/day",34.3%
same,RTV (mean ± SD),"[6]; Day 29, dose 0.20 mg/kg/day",8.93 ± 2.79
same,IR (%) tumor growth inhibition rate,"[6]; Day 29, dose 0.55 mg/kg/day",28.5%
same,RTV (mean ± SD),"[6]; Day 29, dose 0.55 mg/kg/day",9.71 ± 4.99
same,IR (%) tumor growth inhibition rate,"[6]; Day 29, dose 1.7 mg/kg/day",39.7%
same,RTV (mean ± SD),"[6]; Day 29, dose 1.7 mg/kg/day",8.19 ± 2.29
same,IR (%) tumor growth inhibition rate,"[6]; Day 29, dose 5 mg/kg/day",38.6%
same,RTV (mean ± SD),"[6]; Day 29, dose 5 mg/kg/day",8.34 ± 1.82
